Results on 52 molecules are retold here after PubChem BioAssay AID1996.

In brackets after ≈: the same amount, converted by molar mass.

For the data set the following is noted: buffer; pH 7.4; 200.0 µM.
`COc1ccc2oc(C(=O)OCC(=O)N3CC(C)OC(C)C3)c(C)c2c1` (configuration not stated) had a solubility (kinetic) of 51.6 µg/mL (≈ 143 µM).

For the molecule `OCC1OC(n2cnc3c(NCCc4ccccc4)ncnc32)C(O)C1O` (configuration not stated), the solubility (kinetic) is more than 55.7 µg/mL.

`COc1nc2ccccc2nc1N1CCN(C)CC1` had a solubility (kinetic) of 38.4 µg/mL (≈ 149 µM).

`O=C(CN1CCCC1)Nc1cc(C(F)(F)F)ccc1Cl`: the solubility (kinetic) amounted to 18.1 µg/mL (≈ 59 µM).

`CN1c2ccsc2C(=O)/C(=C\Nc2cccc(C(F)(F)F)c2)S1(=O)=O` registered a solubility (kinetic) of less than 0.4 µg/mL.

Turning to `Cn1cc(C(=O)CCl)c2ccccc21`, the solubility (kinetic) is more than 31.1 µg/mL.

Molecule `O=c1[nH]cc(S(=O)(=O)NCc2ccccc2)c(=O)[nH]1` returned a kinetic solubility of more than 42.2 µg/mL.

In the case of `COc1ccccc1NC(=O)c1ccccc1NC(=O)c1ccccc1C(=O)O`, the kinetic solubility was more than 58.6 µg/mL.

Take `N#CC(C#N)=C1NC2(CCCCC2)Cc2ccccc21`: the kinetic solubility came out at 0.8 µg/mL (≈ 3.04 µM).

In turn, `Cc1cc(C(=O)CN2C(=O)C(=O)N(Cc3ccccc3)C2=O)c(C)n1Cc1ccccc1` registered a kinetic solubility of 4 µg/mL (≈ 9.31 µM).

On to `CCOC(=O)Cc1csc(NC(=O)COc2cccc(C)c2)n1`, for which the kinetic solubility was 8.4 µg/mL (≈ 25.1 µM).

Molecule `COc1ccccc1NC(=O)Nc1ccc2c(c1)nc(C)n2C` came in with a solubility (kinetic) of 5.7 µg/mL (≈ 18.4 µM).

Consider `Cc1c(Cl)cccc1NC(=O)CSc1nccn1C`, for which the solubility (kinetic) is more than 44.4 µg/mL.

In turn, `Cc1cc(C(=O)Nc2nncs2)oc1C` displayed a kinetic solubility of more than 33.5 µg/mL.

`Cc1ccc(OCC(=O)O/N=C(\N)c2ccncc2)cc1C` came in with a kinetic solubility of 18.6 µg/mL (≈ 62.1 µM).

The molecule `Cc1nc(SCC(=O)NCC2CCCO2)nc(C)c1C` (configuration not stated) came in with a kinetic solubility of more than 44.3 µg/mL.

Turning to `COc1cccc(CC(=O)Nc2ccc(S(=O)(=O)Nc3nccs3)cc2)c1`, the solubility (kinetic) is more than 60.5 µg/mL.

Consider `CC(=O)NC(CC(=O)N(C)C1CCCCC1)c1ccccc1` (configuration not stated), for which the kinetic solubility was more than 45.4 µg/mL.

On to `CNC1(C)[C@H]2CC[C@H](C2)C1(C)C.Cl` (some centres not stated), for which the kinetic solubility was more than 30.6 µg/mL.

As for `COC(=O)c1ccccc1Oc1cnc2ccccc2n1`, the solubility (kinetic) was more than 42 µg/mL.

On to `Cc1c(C)c(C)c(CO/N=C/c2cccs2)c(C)c1C`, for which the solubility (kinetic) was determined as 1.3 µg/mL (≈ 4.52 µM).

Turning to `O=C(Nc1ccccc1)c1ccc(OC(=O)c2ccccc2)cc1`, the solubility (kinetic) was less than 0.7 µg/mL.

`COc1ccc(CN2CCNCC2)c(OC)c1OC.Cl`: the kinetic solubility stood at 40.3 µg/mL.

In turn, `O=C1NC(=O)C(c2cccs2)(c2cccs2)N1` registered a kinetic solubility of more than 39.6 µg/mL.

`CCOc1ccccc1NC(=O)COC(=O)C1CCC1` yielded a solubility (kinetic) of 39.2 µg/mL (≈ 141 µM).

With `COC(=O)Nc1ccc(S(=O)(=O)N2CCCc3cccc(O)c32)cc1`, the kinetic solubility is 2.1 µg/mL (≈ 5.79 µM).

Turning to `CCOc1ccccc1NC(=O)CN1CCCCCC1.Cl`, the kinetic solubility came to 32.9 µg/mL.

In the case of `Cc1ccc(C(=O)NCC(=O)O)o1`, the kinetic solubility turned out to be 25.1 µg/mL (≈ 137 µM).

In turn, `COc1cc2sc(C)nc2c2ccccc12` had a solubility (kinetic) of 2.9 µg/mL (≈ 12.6 µM).

`CNC(=O)/C(C#N)=C/c1cn(CC(=O)OC)c2ccccc12` came in with a kinetic solubility of 7.8 µg/mL (≈ 26.2 µM).

Consider `Cc1ccccc1NC(=O)CCC(=O)OCC(=O)c1cccc([N+](=O)[O-])c1`, for which the solubility (kinetic) was more than 55.6 µg/mL.

`COc1ccc(-c2ccc3ccccc3n2)cc1` displayed a solubility (kinetic) of less than 0.5 µg/mL.

`CC(C)C(NC(=O)c1ccccc1)C(=O)N1CCCCCC1` (configuration not stated) came in with a solubility (kinetic) of more than 45.4 µg/mL.

As to `Cc1cc(C(=O)N2CCN(c3ccccc3Cl)CC2)c(C)o1`, the kinetic solubility is more than 47.8 µg/mL.

In turn, `O=C1CCCN1CN(C(=O)c1ccccc1)c1ccccc1` returned a kinetic solubility of more than 44.2 µg/mL.

`COC(=O)C1=C(N)Oc2cc(C)[nH]c(=O)c2C1c1ccccc1OC` (configuration not stated) came in with a solubility (kinetic) of 46.5 µg/mL (≈ 136 µM).

Regarding `COC(=O)c1ccc(CNC(=O)[C@@H]2CCCN2S(=O)(=O)c2ccccc2F)cc1`, the solubility (kinetic) worked out at 60.7 µg/mL (≈ 144 µM).

Consider `CC1(c2ccccc2)NC(=O)N(CC(=O)Nc2ccc3c(c2)CCC3)C1=O` (configuration not stated), for which the solubility (kinetic) was found to be 3.8 µg/mL (≈ 10.5 µM).

`O=c1c2ccc(Cl)cc2[nH]c(=S)n1-c1cccnc1` displayed a solubility (kinetic) of 10.8 µg/mL (≈ 37.3 µM).

The molecule `Cc1c(-c2ccc(Br)cc2)[n+](=O)c2c(n1[O-])CCCCC2` yielded a kinetic solubility of more than 52.4 µg/mL.

Take `OCCC1CN(Cc2ccon2)CCN1CCc1ccccc1` (configuration not stated): the solubility (kinetic) is 42.3 µg/mL (≈ 134 µM).

In turn, `COc1ccc(C(=O)OCC(=O)Nc2c(C)n(C)n(-c3ccccc3)c2=O)cc1` came in with a kinetic solubility of more than 59.3 µg/mL.

Molecule `O=C(COC(=O)c1ccc(O)cc1O)NC1CCCCCC1` registered a solubility (kinetic) of more than 46.1 µg/mL.

As for `Clc1ccc(N=c2ssnc2Cl)cc1`, the solubility (kinetic) is 2.7 µg/mL (≈ 10.3 µM).

Molecule `CC(C)(C)C(=O)Nc1nnc(SCC(=O)NC2CC2)s1` had a kinetic solubility of more than 47.2 µg/mL.

In turn, `CC(C)CCNC(=O)CSc1nc2ccccc2s1` displayed a solubility (kinetic) of 38.6 µg/mL (≈ 131 µM).

`CCC(C)c1c(O)nc(SCC(=O)N2CCCCC2)[nH]c1=O` (configuration not stated) yielded a kinetic solubility of more than 48.8 µg/mL.

Turning to `O=C(/C=C/c1c(F)cccc1Cl)N1CCOCC1`, the solubility (kinetic) was 39.8 µg/mL (≈ 148 µM).

Regarding `Cc1scc(C(=O)N2CCN(c3ccc(Cl)cc3)CC2)c1C`, the solubility (kinetic) is 23.3 µg/mL (≈ 69.6 µM).

Regarding `O=C(CN1C(=O)COc2ccccc21)NCCN1CCOCC1`, the kinetic solubility is more than 47.9 µg/mL.

`CC(=O)c1c(C)nc(Nc2nc(C)c3cc(C)ccc3n2)nc1C` yielded a kinetic solubility of more than 48.2 µg/mL.

`COc1ccc(CC(C)NCCc2ccc(OC)c(OC)c2)cc1` (configuration not stated) yielded a solubility (kinetic) of 48.7 µg/mL (≈ 148 µM).
